# Data taken from patent publication US20090220528A1, “Stimulation of Toll-Like Receptors on T Cells” (THE TRUSTEES OF THE UNIVERISTY OF PENNSYLVANIA CNETER FOR …, priority 2005, published 2009).
# Legend:
# Format in all cases: cell-based, mouse
# activated CD4+ T cells = assay: Absolute live CD4+ T cell counts by FACS; conditions: up to 72 hours following activation with plate-bound anti-CD3 plus anti-CD28; relative to untreated cultures (FIG. 3C)
# Description: (§1) Following activation, purified CD4^+ T cells were washed twice in PBS and replated in culture medium at 10^6/ml. Cultures were left untreated or treated with either TLR ligands and/or inhibitors for indicated times and concentrations. Following incubation, CD4^+ T cells were washed twice in PBS/2% FBS and stained with CD4-allophycocyanin monoclonal antibody and 7-aminoactinomycin D (7-AAD; BD PharMingen) or annexin (BD PharMingen) and survival was assessed by exclusion of either of these two stains. For absolute live cell counts 50,000 CD45.1^+ splenocytes labeled with anti-CD45.1-PE monoclonal antibody (A20; BD PharMingen) were also added to stained CD4^+ T cell sample FACS tubes just before FACS analysis. Live CD4^+ T cell counts were calculated by taking the ratio of the number of CD4^+CD45.1^−7-ADD^− events collected to the number CD45.1^+ events collected and multiplying by 50,000. Proliferation was measured by CFSE dye dilution as previously described (Wells et al., 1997 J. Clin. Invest. 100:3173).
# Since percentage survival measurements may not be reflective of viable CD4^+ T cell numbers in vitro, absolute live cell number counts were quantified for periods up to 72 hours following activation of FACS sorted CD4^+ T cells with plate-bound anti-CD3 plus anti-CD28 monoclonal antibodies (FIGS. 3C).
# [1] = test system: activated DO11.10 CD4+ T cells; assay: Proliferation by CFSE dye dilution; conditions: 72 hours following activation; relative to untreated activated controls (FIG. 3D)
# Description: as §1, with “For absolute live cell counts 50,000 CD45.1^+ splenocytes labeled with anti-CD45.1-PE monoclonal antibody (A20; BD PharMingen) were also added to stained CD4^+ T cell sample FACS tubes just before FACS analysis.” left out
# Without wishing to be bound by any particular theory, the increases in live cells numbers observed could be explained by TLR ligand-mediated increases in CD4^+ T cell proliferation. […] To address this issue, CFSE-labeled DO11.10 CD4^+ T cells were first activated by pOVA-pulsed APCs for 16 hours, purified by magnetic beads, and then treated with TLR ligands and assessed for proliferation 72 hours following activation (FIG. 3D).
# [2] = test system: Foxp3+GFP+ and Foxp3-GFP- T cells; assay: Foxp3 expression (GFP reporter) and IL-6 production in Foxp3+ and Foxp3- T cells under stimulation
# Description: In order to study the effect of stimulation conditions on Foxp3 expression, T cells were from mice having a reporter construct introduced into the FOXP3 locus (Betteli et al., 2006, Nature 441:235-238) by sorting cells based on the GFP-reporter construct. The reporter construct expresses both Fox3p and the fluorescent protein GFP. T cells that are Foxp3^− (i.e. GFP^−) and T cells that are Foxp3^+ (i.e. GFP^+) were isolated (FIG. 21A). Foxp3 expression was then assessed under different stimulation conditions, […]
substance,measurement,setting,value
poly(I:C),live CD4+ T cell numbers,activated CD4+ T cells,concordant increases
same,proliferation of activated CD4+ T cells,[1],did not enhance proliferation
same,Foxp3 expression in Foxp3+GFP+ cells (natural Tregs),[2]; activated by anti-CD3 plus TLR ligand (FIG. 21B),maintained Foxp3 expression
same,Foxp3 expression in Foxp3-GFP- cells (non-regulatory T cells),"[2]; stimulation with anti-CD3 and anti-CD28 antibodies and TGF-b, with additions (FIG. 22)",augmented
